Test results as given in US5616606A, “Oligopeptide antiretroviral agents” (priority 1995, dated 1997).
“And” between values parts separate entries of the source, which are not always exact repeats. Equal values may be shown once. Read-outs that look alike come from different tables or passages of the source.

Experiments:
[1] = tested on: T4 lymphocytes (CEM cell line); assay: NCI anti-HIV screen, toxicity control in uninfected cells; assay type: cell-based
poly(dA-dT) = assay: ethidium displacement assay, poly(dA-dT); settings: relative to ethidium 9.5 × 10^6 M^-1, average of repeat measurements
HBV = assay: inhibition of HBV DNA replication in 2.2.15 cell cultures; assay type: cell-based; settings: single well, dihydrochloride; for INT[…] DNA MONO.: 24 hours following the 9th day of treatment
[2] = solubility in DMSO, MeOH, H2O; assay type: physicochemical; settings: H2O
2.2.15 cells = assay: toxicity analysis, neutral red dye uptake in 2.2.15 cells; settings: triplicate, ± standard deviation
[3] = HIV-1 infected CEM cells, 6 days, XTT, Tables VI-X
[4] = dose 1.34 × 10^-3 Molar, Table VII
[5] = dose 1.34 × 10^-4 Molar, Table VII
[6] = dose 1.35 × 10^-5 Molar, Table VII
[7] = dose 1.35 × 10^-6 Molar, Table VII
[8] = dose 4.26 × 10^-4 Molar, Table VII
[9] = dose 4.26 × 10^-5 Molar, Table VII
[10] = dose 4.27 × 10^-6 Molar, Table VII
[11] = dose 4.28 × 10^-7 Molar, Table VII
[12] = dose 1.79 × 10^-6 Molar, Table VI
[13] = dose 1.79 × 10^-7 Molar, Table VI
[14] = dose 1.79 × 10^-8 Molar, Table VI
[15] = dose 5.66 × 10^-6 Molar, Table VI
[16] = dose 5.67 × 10^-7 Molar, Table VI
[17] = dose 5.68 × 10^-8 Molar, Table VI
[18] = dose 5.68 × 10^-9 Molar, Table VI
[19] = dose 1.05 × 10^-8 Molar, Table VIII
[20] = dose 1.09 × 10^-7 Molar, Table VIII
[21] = dose 3.31 × 10^-6 Molar, Table VIII
[22] = dose 3.31 × 10^-7 Molar, Table VIII
[23] = dose 3.32 × 10^-8 Molar, Table VIII
[24] = dose […] 10^-6 Molar, Table VIII

Cl.Cl.Cn1cc(NC(=O)c2cc(NC(=O)/C=C\C(=O)Nc3cc(C(=O)Nc4cc(C(=O)NCCC(=N)N)n(C)c4)n(C)c3)cn2C)cc1C(=O)NCCC(=N)N [Compound 22b, N,N'-Di(1-methyl-2-carboxamido(3-(proprionamidine-4-pyrrole]-4-pyrrolyl)maleamidedihydrochloride]
EC50 (HIV-1; [3]): 4.04 µM
EC50 (HIV-1; Table XI): 0.35 µM

Cl.Cl.Cn1cc(NC(=O)c2cc(NC(=O)c3cccc(C(=O)Nc4cc(C(=O)Nc5cc(C(=O)NCCC(=N)N)n(C)c5)n(C)c4)c3)cn2C)cc1C(=O)NCCC(=N)N [Compound 20b, N,N'-di[1-methyl-2-[1-methyl-2-carboxamido(3-propionamidine)-4-pyrrole]-4-pyrrolyl] isophthalamide dihydrochloride]
[…] % of Control [1, 4]: 10.39 % of Control
[…] % of Control [1, 5]: 142.80 % of Control
[…] % of Control [1, 6]: 117.76 % of Control
[…] % of Control [1, 7]: 131.95 % of Control
[…] % of Control [1, 8]: -0.29 % of Control
[…] % of Control [1, 9]: 123.27 % of Control
[…] % of Control [1, 10]: 123.64 % of Control
[…] % of Control [1, 11]: 116.38 % of Control
EC50 (HIV-1; [3]): 3.55 µM
INFECTED RESPONSE % of Control (HIV-1; [4]): 4.26 % of Control
INFECTED RESPONSE % of Control (HIV-1; [5]): 63.57 % of Control
INFECTED RESPONSE % of Control (HIV-1; [6]): 117.45 % of Control
INFECTED RESPONSE % of Control (HIV-1; [7]): 29.25 % of Control
INFECTED RESPONSE % of Control (HIV-1; [8]): 0.02 % of Control
INFECTED RESPONSE % of Control (HIV-1; [9]): 120.68 % of Control
INFECTED RESPONSE % of Control (HIV-1; [10]): 64.76 % of Control
INFECTED RESPONSE % of Control (HIV-1; [11]): 48.47 % of Control
Kapp (poly(dA-dT)): 4.9e+07 M⁻¹

Cl.Cl.Cn1cc(NC(=O)c2cc(NC(=O)c3ccc(C(=O)Nc4cc(C(=O)Nc5cc(C(=O)NCCC(=N)N)n(C)c5)n(C)c4)cc3)cn2C)cc1C(=O)NCCC(=N)N [Compound 19b, N,N'-di[1-methyl-2-[1-methyl-2-carboxamido(3-propionamidine)-4-pyrrole]-4-pyrrolyl] terephthalamide dihydrochloride]
[…] % of Control [1]: 192.17 % of Control
IC50 ([1]; Table XI): 17.9 µM
[…] % of Control [1, 12]: 136.50 % of Control
[…] % of Control [1, 13]: 92.72 % of Control
[…] % of Control [1, 14]: 92.56 % of Control
[…] % of Control [1, 15]: 164.46 % of Control
[…] % of Control [1, 16]: 88.21 % of Control
[…] % of Control [1, 17]: 94.69 % of Control
[…] % of Control [1, 18]: 68.62 % of Control
IC50 ([1]; uninfected CEM cells, 6 days, XTT, Tables VI-X): > 1.79 × 10^-5 Molar
EC50 (HIV-1; [3]): 2.08 µM
EC50 (HIV-1; Table XI): 1.21 µM
INFECTED RESPONSE % of Control (HIV-1; dose 1.79 × 10^-5 Molar, Table VI): 167.25 % of Control
INFECTED RESPONSE % of Control (HIV-1; [12]): 51.73 % of Control
INFECTED RESPONSE % of Control (HIV-1; [13]): 29.97 % of Control
INFECTED RESPONSE % of Control (HIV-1; [14]): 33.00 % of Control
INFECTED RESPONSE % of Control (HIV-1; [15]): 134.54 % of Control
INFECTED RESPONSE % of Control (HIV-1; [16]): 28.86 % of Control
INFECTED RESPONSE % of Control (HIV-1; [17]): 23.70 % of Control
INFECTED RESPONSE % of Control (HIV-1; [18]): 39.64 % of Control
Kapp (poly(dA-dT)): 4.3e+07 M⁻¹

Cl.Cl.Cn1cc(NC(=O)c2cc(NC(=O)CCCCC(=O)Nc3cc(C(=O)Nc4cc(C(=O)NCCC(=N)N)n(C)c4)n(C)c3)cn2C)cc1C(=O)NCCC(=N)N [Compound 7, N,N'-Di(1-methyl-2-[1-methyl-2-carboxamido(3-proprionamidine)-4-pyrrole]-4-pyrrolyl) adipamide dihydrochloride]
INT[…] DNA MONO. (HBV; 10 μM): 2.1 pg/μg CELL DNA and 2.3 pg/μg CELL DNA and 2.2 pg/μg CELL DNA and 2.6 pg/μg CELL DNA
HBV VIRION DNA DAY 0 (HBV; 10 μM, day 0): 75 pg/ml CULTURE MEDIUM and 92 pg/ml CULTURE MEDIUM and 60 pg/ml CULTURE MEDIUM and 55 pg/ml CULTURE MEDIUM
HBV VIRION DNA DAY 6 (HBV; 10 μM): 68 pg/ml CULTURE MEDIUM and 67 pg/ml CULTURE MEDIUM and 57 pg/ml CULTURE MEDIUM and 50 pg/ml CULTURE MEDIUM
HBV VIRION DNA DAY 9 (HBV; 10 μM): 56 pg/ml CULTURE MEDIUM and 57 pg/ml CULTURE MEDIUM and 87 pg/ml CULTURE MEDIUM and 58 pg/ml CULTURE MEDIUM
INT[…] DNA MONO. (HBV; 50 μM): 2.7 pg/μg CELL DNA and 2.5 pg/μg CELL DNA and 2.3 pg/μg CELL DNA
HBV VIRION DNA DAY 6 (HBV; 50 μM): 67 pg/ml CULTURE MEDIUM and 75 pg/ml CULTURE MEDIUM and 83 pg/ml CULTURE MEDIUM and 69 pg/ml CULTURE MEDIUM
HBV VIRION DNA DAY 9 (HBV; 50 μM, zero = undetectable, cutoff 0.1 pg/ml): 63 pg/ml CULTURE MEDIUM and 68 pg/ml CULTURE MEDIUM and 77 pg/ml CULTURE MEDIUM and 66 pg/ml CULTURE MEDIUM
Solubility in H2O [2]: good
NEUTRAL RED DYE UPTAKE (2.2.15 cells; 30 μg/ml): 102 ± 1 % OF CONTROL
NEUTRAL RED DYE UPTAKE (2.2.15 cells; 300 μg/ml): 98 ± 2 % OF CONTROL

Cl.Cl.Cn1cc(NC(=O)c2cc(NC(=O)/C=C/C(=O)Nc3cc(C(=O)Nc4cc(C(=O)NCCC(=N)N)n(C)c4)n(C)c3)cn2C)cc1C(=O)NCCC(=N)N [Compound 21b, N,N'-di[1-methyl-2-[1-methyl-2-carboxamido(3-propionamidine)-4-pyrrole]-4-4pyrrolyl] fumaride dihydrochloride]
[…] % of Control [1, 19]: 83.05 % of Control
[…] % of Control [1, 20]: 90.26 % of Control
[…] % of Control [1, 21]: 151.83 % of Control
[…] % of Control [1, 22]: 88.21 % of Control
[…] % of Control [1, 23]: 67.56 % of Control
[…] % of Control [1, 24]: 83.87 % of Control
EC50 (HIV-1; [3]): 1.67 µM
EC50 (HIV-1; Table XI): 1.37 µM
INFECTED RESPONSE % of Control (HIV-1; [19]): 18.00 % of Control
INFECTED RESPONSE % of Control (HIV-1; [20]): 26.15 % of Control
INFECTED RESPONSE % of Control (HIV-1; [21]): 96.78 % of Control
INFECTED RESPONSE % of Control (HIV-1; [22]): 20.00 % of Control
INFECTED RESPONSE % of Control (HIV-1; [23]): 22.96 % of Control
INFECTED RESPONSE % of Control (HIV-1; [24]): 38.90 % of Control
Kapp (poly(dA-dT)): 4.9e+07 M⁻¹
